Results reported in ChEMBL document CHEMBL4706757, “Novel Substituted Pyridazines as Splicing Modulators for Modulating Splicing of mRNA and Uses Thereof for Treating Diseases” (ACS Med Chem Lett, 2021).

What was measured:
Format in all cases: cell-based
[1] = Modulation of HTT mRNA splicing in human GM04724 cells assessed as mHTT protein level incubated for 48 hrs by 2B7-MW1 assay; conditions: GM04724, 48 h
[2] = Modulation of HTT mRNA exon 49b splicing in human GM04724 cells incubated for 24 hrs by TaqMan qPCR analysis; conditions: GM04724, 24 h
[3] = Modulation of HTT mRNA exon 49-50 splicing in human GM04724 cells incubated for 24 hrs by TaqMan qPCR analysis; conditions: GM04724, 24 h

Measured: EC50

Cn1cc(-c2cc(O)c(-c3ccc(O[C@@H]4C[C@@H]5CCC[C@@H](N5)[C@@H]4F)nn3)cc2F)cn1
≤ 0.01 nM: all assays above

Oc1cc(-c2cn[nH]c2)c(F)cc1-c1ccc(O[C@@H]2C[C@@H]3CCC[C@@H](N3)[C@@H]2F)nn1
≤ 0.01 nM: all assays above

Oc1cc(-c2cn[nH]c2)ccc1-c1ccc(O[C@H]2C[C@H]3CCC[C@H](N3)[C@H]2F)nn1
≤ 0.01 nM: all assays above

Oc1cc(-c2cn[nH]c2)c(F)cc1-c1ccc(O[C@H]2C[C@H]3CCC[C@H](N3)[C@H]2F)nn1
≤ 0.01 nM: all assays above

Cn1cc(-c2cc(O)c(-c3ccc(O[C@H]4C[C@H]5CCC[C@H](N5)[C@H]4F)nn3)cc2F)cn1
≤ 0.01 nM: all assays above

C[C@]12CCC[C@](C)(N1)[C@@H](F)[C@@H](Oc1ccc(-c3ccc(-c4cn[nH]c4)cc3O)nn1)C2
≤ 0.01 nM: all assays above

Oc1cc(-c2cn[nH]c2)ccc1-c1ccc(O[C@@H]2C[C@@H]3CCC[C@@H](N3)[C@@H]2F)nn1
≤ 0.01 nM: all assays above

C[C@@]12CCC[C@@](C)(N1)[C@H](F)[C@H](Oc1ccc(-c3ccc(-c4cn[nH]c4)cc3O)nn1)C2
≤ 0.01 nM: all assays above
